The source of these data is patent US5976523A, “Method for healing compromised tissues using pyrimidine derivatives” (Mitsui Pharmaceuticals, Inc., priority 1995, dated 1999).

The test system of one assay is TMK1 cells. Description: Morphological change of TMK1 cells. The assay is classed as cell-based.
The test system of another assay is PDGF-A mRNAs. Description: Northern blot analysis of PDGF-A mRNA expression in cultured rat SMCs. Type of assay: cell-based. How it is done:
SMCs were prepared following the method proposed by Ross and Klebanoff in "J. Cell. Biol.", 50, 159 ff, 1971 with partial modifications. A rat thoracic aorta was excised. After the tunica externa was peeled off, the tunica media and the tunica intima were minced into 2-3 mm^2. The minced sections were placed standstill in a 25-cm^2 flask which contained Waymouth's MB 752/1 medium containing 10% FBS and 80 ng/ml of gentamycin (product of Schering-Plough Corp.), followed by incubation at 37° C. for 2 to 3 weeks in the presence of 5% carbon dioxide gas (primary culture). The same volume of a trypsin-EDTA solution was added to the flask. After the sections were treated at 37° C. for 5 minutes to peel off cells, the cells were diluted with 10% FBS-Waymouth's MB 752/1 medium and then subcultured (second generation). Subculture was successively conducted likewise whenever the SMC became confluent. In the following experiments, the cells from the 5th generation to the 12th generation were employed.
After reach in confluence of cells, the cultured SMCs were cultured for 2 days in a serum-free medium to avoid influence of serum. The SMCs were then added with thrombin (1.0 U/ml) or serotonin (5 μM), followed by incubation at 37° C. for 6 hours under which bring about induction of PDGF-A mRNAs at the maximum. To prevent dissociation of ribosomes and mRNAs, cycloheximide (100 μg/ml) was added 5 minutes before cells were collected.
Preparation of a polysome fraction and extraction of RNAs were conducted following the method proposed by Kasper, et al. in "J. Biol. Chem.", 267, 508 ff, 1992 with slight modifications. The cells, which had been collected by the treatment with trypsin, were washed with PBS containing cycloheximide (100 μg/ml). A cell precipitate was then added with 500 μl of a high-salt lysis buffer (20 mM Tris-HCl pH 7.5, 250 mM NaCl, 5 mM MgCl2, 0.1% Noni det P-40, 0.2% DOC) for homogenization. The homogenate was centrifuged under 12,000×g at 4° C. for 10 minutes. The resulting supernatant was added with 67 μl of a heparine mix (7.4 mg/ml heparine, 1.1M NaCl, 15 mM DTT and RNasin). 200 μl of the extract were layered on 5 ml of 0.5-1.25M linear sucrose gradient (which contained 20 mM Tris-HCl pH 7.4, 10 mM NaCl, 3 mM MgCl2), followed by centrifugation under 45,000 rpm for 90 minutes in a "Hitachi RP55ST". While monitoring the absorbance at 260 nm, ten (10) fractions were obtained. To prepare samples for the extraction of RNAs, the fractions were individually added with SDS and proteinase K to give final concentrations of 1% and 0.2 mg/ml, respectively. Subsequent to incubation at 37° C. for 1 hour, each fraction was extracted once with 1/2 volume of phenol, twice with 1/2 volume aliquots of chloroform, and once with the equal volume of chloroform, whereby proteins were removed. The water layer was added with glycogen (20 μg/ml) as a coprecipitant and then with 0.03M of sodium acetate, and RNAs were caused to precipitate with 2 volumes of ethanol.
After RNAs were incubated at 65° C. for 5 minutes in a solution containing 60% of formamide, 5.9% of formaldehyde and the equal volume of MOPS buffer (10 mM MOPS pH 7.0, 4 mM NaOAc, 0.5 mM EDTA), electrophoresis was conducted across 1.2% agarose gels containing the equal volume of MOPS buffer so that RNAs were. isolated. After the gel was washed with 20 volumes of SSC, RNAs were blotted overnight to a Gene Screen Plus membrane by the capillary method. Fixing of the RNAs was conducted by exposing them for 1 minute at a distance of 10 cm from a 15-W sterilamp. Using a "QuickHyb Hybridization Solution" (product of Strategene Ltd.), hybridization was conducted following the instruction manual attached to the solution. Results of autoradiography were quantitated with reference to the NIH Image. […]

SMILES strings stand for the structures. Counter-ions that a name gives are not always drawn.

Regarding `CN1Cc2nc(N3CCNCC3)ncc2C1=O` [Compound B, 2-piperazino-6-methyl-5-oxo-5,6-dihydro(7H)pyrro[3,4-d]pyrimidine maleate], the “time of sprouting of the process of the cells similar to neurites” value with TMK1 cells (EGF and compound) is 8 h. In addition, in the assay on TMK1 cells (EGF and compound, compared with EGF alone), the morphological changes result is listed as “still more marked intensive morphological changes”. Further, the “network formation of cell processes” value in the assay with TMK1 cells (EGF and compound, day 1) is “forming a dense network on day 1”. In addition, the morphological changes result in the assay on TMK1 cells (singly added, 1 mM, fifth hour to day 1) is “only slight morphological changes”. In addition, the “morphological changes after removal of the test agent” value in the assay on TMK1 cells (test agent removed) is “these morphological changes disappeared”. In addition, in the assay with PDGF-A mRNAs (Rattus norvegicus, 6 h, read-out: expression amount of 1.7 kb PDGF-A mRNAs compared with control), the fold induction at 100 µM amounted to 1.4. For the same compound, the “band of 1.3 kb PDGF-A” value with PDGF-A mRNAs (addition of compound) is recorded as “additionally detected”. In the assay on PDGF-A mRNAs (compound 0.1 mM + thrombin), the “2.3 kb PDGF-A mRNAs” value is on record as “in greater amounts” and the “2.9 kb PDGF-A mRNAs” value is “in greater amounts”.
